“And” between values parts separate entries of the source, which are not always exact repeats. Identical values can stand only once.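 Step 1: Grow cells in 96-well plates. Step 2: Expose to compound for 48 hours at 5 concentrations. Step 3: Interpolate endpoints linearly; if unreached, use highest concentration. Abbreviation: GI50, concentration required for 50% inhibition of growth. TGI: total growth inhibition.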
How the values were obtained:
Assay in all cases: NCI-60 cell line screen, 48 h
[1] = test system: A549 NSCLC
[2] = test system: HT29 colon
[3] = test system: M14 melanoma
[4] = test system: MCF7 breast
[5] = test system: MOLT-4 leukemia
[6] = test system: OVCAR-8 ovarian
[7] = test system: PC-3 prostate
[8] = test system: SK-MEL-2 melanoma
[9] = test system: SNB-75 CNS
[10] = test system: SF-295 CNS

## Cc1ccc(/C=C2\CCOC2=O)cc1
[1]
  GI50: > 100 µM
  TGI: > 100 µM
[2]
  GI50: > 100 µM
  TGI: > 100 µM
[3]
  GI50: > 100 µM
  TGI: > 100 µM
[4]
  GI50: > 100 µM
  TGI: > 100 µM
[5]
  GI50: > 100 µM
  TGI: > 100 µM
[6]
  GI50: > 100 µM
  TGI: > 100 µM
[7]
  GI50: > 100 µM
  TGI: > 100 µM
[8]
  GI50: > 100 µM
  TGI: > 100 µM
[9]
  GI50: > 100 µM
  TGI: > 100 µM

## Cc1ccccc1NC(=O)NC(CC(N)=O)c1ccc2c(c1)nc(-c1cccc(Oc3ccc(C(C)(C)C)cc3)c1)n2CCCN1CCCCC1C (stereo unspecified)
[1]
  GI50: 5.54 µM
  TGI: 14.6 µM
[2]
  GI50: 1.95 µM
  TGI: 3.89 µM
[3]
  GI50: 1.83 µM
  TGI: 3.44 µM
[4]
  GI50: 1.92 µM
  TGI: 3.54 µM
[5]
  GI50: 3.39 µM
  TGI: 9.65 µM
[6]
  GI50: 2.44 µM
  TGI: 6.63 µM
[7]
  GI50: 3.94 µM
  TGI: 12 µM
[10]
  GI50: 4.25 µM
  TGI: 9.57 µM
[8]
  GI50: 11.1 µM
  TGI: 23.3 µM
[9]
  GI50: 2.41 µM
  TGI: 6.5 µM

## COc1ccc(-n2c(N)c(C(=O)NCCN3CCOCC3)c3nc4ccccc4nc32)cc1OC
[1]
  GI50: 6.08 µM
  TGI: > 100 µM
[2]
  GI50: 5.8 µM
  TGI: > 100 µM
[3]
  GI50: 15.1 µM
  TGI: > 100 µM
[4]
  GI50: 4.13 µM
  TGI: > 100 µM
[5]
  GI50: 2.87 µM
  TGI: 27.4 µM
[6]
  GI50: 6.94 µM
  TGI: > 100 µM
[7]
  GI50: 11.7 µM
  TGI: 87.3 µM
[8]
  GI50: 2.94 µM
  TGI: 42.8 µM
[9]
  GI50: 38.7 µM
  TGI: > 100 µM

## Cn1c(=O)c(F)c(Nc2ccc(I)cc2F)c2c(=O)n(C[C@@H](O)CO)cnc21
[1]
  GI50: 0.234 µM and 0.11 µM
  TGI: 58.7 µM and > 4.08 µM
[2]
  GI50: < 0.01 µM and 0.0029 µM
  TGI: 19.5 µM and > 3.46 µM
[3]
  GI50: < 0.01 µM and 0.00175 µM
  TGI: 0.0211 µM
[4]
  GI50: 21 µM
  TGI: 75 µM and > 4.05 µM
[5]
  GI50: 18.4 µM
  TGI: 45.1 µM and > 4.74 µM
[6]
  GI50: 7.91 µM
  TGI: > 100 µM
[7]
  GI50: 16.4 µM
  TGI: 71.5 µM and > 4.12 µM
[10]
  GI50: 14.1 µM and > 2.11 µM
  TGI: > 78.3 µM
[8]
  GI50: < 0.01 µM and 0.00295 µM
  TGI: < 0.0252 µM and 0.0277 µM
[9]
  GI50: 4.11 µM
  TGI: 30.8 µM and > 2.29 µM

## O=C1NC(=NCc2ccccn2)S/C1=C\c1ccc2ncccc2c1
[1]
  GI50: 8.41 µM
  TGI: > 25 µM
[2]
  GI50: 15 µM
  TGI: > 25 µM
[3]
  GI50: 11.6 µM
  TGI: > 25 µM
[4]
  GI50: 8.75 µM
  TGI: > 25 µM
[5]
  GI50: 11.3 µM
  TGI: > 25 µM
[6]
  GI50: 14.4 µM
  TGI: > 25 µM
[7]
  GI50: > 25 µM
  TGI: > 25 µM
[10]
  GI50: 14.7 µM
  TGI: > 25 µM
[8]
  GI50: 10.7 µM
  TGI: > 22.8 µM
[9]
  GI50: 4.21 µM
  TGI: 22.4 µM

## CSC(=S)N/N=C(\C)c1ccccn1
[1]
  GI50: 0.311 µM
  TGI: 18 µM
[2]
  GI50: < 0.0394 µM
  TGI: 18.1 µM
[3]
  GI50: 0.0997 µM
  TGI: 2.33 µM
[4]
  GI50: < 0.0207 µM
  TGI: 11.2 µM
[5]
  GI50: < 0.0145 µM
  TGI: 0.975 µM
[6]
  GI50: 0.203 µM
  TGI: 13.5 µM
[7]
  GI50: 0.0452 µM
  TGI: > 82.2 µM
[10]
  GI50: 0.255 µM
  TGI: 8.38 µM
[8]
  GI50: 0.329 µM
  TGI: 3.75 µM
[9]
  GI50: 1.47 µM
  TGI: 32.3 µM

## Cc1ccc(Cl)cc1Nc1nc(C(F)(F)F)ccc1C(=O)Oc1ccc(Cl)cc1
[1]
  GI50: 4.86 µM
  TGI: 20.5 µM
[2]
  GI50: 13.3 µM
  TGI: > 100 µM
[3]
  GI50: 18.1 µM
  TGI: > 100 µM
[4]
  GI50: 16.8 µM
  TGI: > 100 µM
[5]
  GI50: 7.99 µM
  TGI: 24.3 µM
[6]
  GI50: 7.62 µM
  TGI: 29 µM
[7]
  GI50: 5.85 µM
  TGI: 21.1 µM
[10]
  GI50: 7.08 µM
  TGI: 21.7 µM
[8]
  GI50: 17.7 µM
  TGI: > 100 µM
[9]
  GI50: 6.57 µM
  TGI: 23.3 µM

## CCCCCCCCSC1=CC(=O)C(OC)=C(OC)C1=O
[1]
  GI50: 5.49 µM
  TGI: 18.5 µM
[2]
  GI50: 3.75 µM
  TGI: 12.6 µM
[3]
  GI50: 2.06 µM
  TGI: 9.86 µM
[4]
  GI50: 1.91 µM
  TGI: 14.1 µM
[5]
  GI50: 1.87 µM
  TGI: > 100 µM
[6]
  GI50: 2.16 µM
  TGI: 5.16 µM
[7]
  GI50: 6.24 µM
  TGI: 23.3 µM
[10]
  GI50: 6.75 µM
  TGI: 31.4 µM
[8]
  GI50: 4.3 µM
  TGI: 13.7 µM
[9]
  GI50: 2.21 µM
  TGI: 16.7 µM

## COc1cc(/C=C/C(=O)c2ccc(Nc3nc(Nc4ccc(F)cc4)nc(Nc4ccc(F)cc4)n3)cc2)cc(OC)c1OC
[1]
  GI50: 8.27 µM
  TGI: > 100 µM
[2]
  GI50: 9.36 µM
  TGI: > 100 µM
[3]
  GI50: 6.55 µM
  TGI: 90.8 µM
[4]
  GI50: 5.26 µM
  TGI: > 100 µM
[5]
  GI50: 1.93 µM
  TGI: > 100 µM
[6]
  GI50: 1.94 µM
  TGI: > 100 µM
[7]
  GI50: 3.18 µM
  TGI: > 100 µM
[10]
  GI50: 28.8 µM
  TGI: > 100 µM
[8]
  GI50: 3.99 µM
  TGI: 33.2 µM
[9]
  GI50: > 100 µM
  TGI: > 100 µM

## CC(=O)Nc1ccc(C(=O)N[C@@H]2C(=O)N3[C@@H]2SC(C)(C)[C@@H]3C(=O)O)cn1
[1]
  TGI: > 100 µM
[2]
  TGI: > 100 µM
[3]
  TGI: > 100 µM
[4]
  TGI: > 100 µM
[5]
  TGI: > 100 µM
[6]
  TGI: > 100 µM
[7]
  TGI: > 100 µM
[10]
  TGI: > 100 µM
[8]
  TGI: > 100 µM
[9]
  TGI: > 100 µM

From PubChem BioAssay (NCI)
